Results: patent US20200024278A1, “COMPOSITION COMPRISING ANTIBIOTIC COMPOUND AND AN HETEROCYCLIC COMPOUND AND THEIR USE IN PREVENTING OR TREATING BACTERIAL INFECTIONS” (MUTABILIS, priority 2016, published 2020)

Experiments:
Assay in all cases: MIC, broth microdilution (CLSI), substance alone or ATB combined with compound at 4 or 8 μg/mL
ECO 190317 = type: cell-based, E. coli; conditions: ECO 190317
Method: (§1) Compounds of the present invention were assessed against genotyped bacterial strains alone or in combination with an antibacterial. In the assays, MICs of said compounds or combination of antibiotics with fixed concentrations of said compounds (4 or 8 μg/mL) were determined by the broth microdilution method according to the Clinical Laboratory Standards Institute (CLSI-M7-A7). Briefly, compounds alone according to the invention were prepared in DMSO and spotted (2 μL each) on sterile polystyrene plates (Corning, 3788). Combinations of compounds and antibiotics dilutions were prepared in DMSO and spotted (1 μL each) on sterile polystyrene plates (Corning, 3788). Log phase bacterial suspensions were adjusted to a final density of 5·10^5 CFU/mL in cation-adjusted Mueller-Hinton broth (ca-MHB; Becton-Dickinson and Company) and added to each well (98 μL). Assays including Fosfomycin were supplemented with 25 μg/ml of Glucose-6-phosphate. Microplates were incubated for 16-20 h at 35° C. in ambient air. The MIC of the compounds was defined as the lowest concentration of said compounds that prevented bacterial growth as read by visual inspection. The MIC of ATB at each compound concentration was defined as the lowest concentration of ATB that prevented bacterial growth as read by visual inspection.

ECO UFR39 = type: cell-based, E. coli; conditions: ECO UFR39
Method: as §1

KPN 6299 = type: cell-based, K. pneumoniae
Method: as §1

KPN BAA-1898 = type: cell-based, K. pneumoniae; conditions: KPN BAA-1898
Method: as §1

KPN UFR42 = type: cell-based, K. pneumoniae; conditions: KPN UFR42
Method: as §1

ECL P99 = type: cell-based, E. cloacae; conditions: ECL P99
Method: as §1

PAE 105250 = type: cell-based, P. aeruginosa; conditions: PAE 105250
Method: as §1

PAE UFR48 = type: cell-based, P. aeruginosa; conditions: PAE UFR48
Method: as §1

PAE UFR90 = type: cell-based, P. aeruginosa; conditions: PAE UFR90
Method: as §1

SAU 29213 = type: cell-based, S. aureus; conditions: SAU 29213
Method: as §1

SPN 49619 = type: cell-based, S. pneumoniae; conditions: SPN 49619
Method: as §1

CO/N=C(\C(=O)N[C@@H]1C(=O)N2C(C(=O)[O-])=C(C[n+]3cccc4c3CCC4)CS[C@H]12)c1csc(N)n1 [CPO]
MIC ATB alone (ECO 190317; antibiotic alone): >256 µg/mL
MIC ATB combined with Example 1 @8 μg/ml (ECO 190317; with Example 1 @8 μg/ml): <0.031 µg/mL
MIC ATB combined with Example 1 @8 μg/ml (ECO 190317; with Example 1 at 8 μg/ml): <0.031 µg/mL
MIC ATB combined with Example 7 @8 μgml (ECO 190317; with Example 7 at 8 μg/ml): <0.031 µg/mL
MIC ATB combined with Example 9 @4 μg/ml (ECO 190317; with Example 9 @4 μg/ml): <0.031 µg/mL
MIC ATB combined with Example 9 @4 μg/ml (ECO 190317; with Example 9 at 4 μg/ml): <0.031 µg/mL
MIC ATB combined with Example 11 @8 μg/ml (ECO 190317; with Example 11 at 8 μg/ml): <0.031 µg/mL
MIC ATB combined with Example 12 @8 μg/ml (ECO 190317; with Example 12 at 8 μg/ml): <0.031 µg/mL
MIC ATB combined with Example 13 @8 μg/ml (ECO 190317; with Example 13 at 8 μg/ml): <0.031 µg/mL
MIC ATB combined with Example 14 @8 μg/ml (ECO 190317; with Example 14 at 8 μg/ml): <0.031 µg/mL
MIC ATB combined with Example 15 @4 μgml (ECO 190317; with Example 15 at 4 μg/ml): <=0.031 μg/mL
MIC ATB combined with Example 16 @4 μg/ml (ECO 190317; with Example 16 at 4 μg/ml): <0.031 µg/mL
MIC ATB alone (ECO UFR39; CPO alone): >32 µg/mL
MIC ATB alone (ECO UFR39; antibiotic alone): >32 µg/mL
MIC ATB combined with Example 1 @8 μg/ml (ECO UFR39; with Example 1 @8 μg/ml): <0.031 µg/mL
MIC ATB combined with Example 9 @4 μg/ml (ECO UFR39; with Example 9 @4 μg/ml): <0.031 µg/mL
MIC ATB alone (KPN 6299; antibiotic alone): >256 µg/mL
MIC ATB combined with Example 1 @8 μg/ml (KPN 6299; with Example 1 @8 μg/ml): 0.5 µg/mL
MIC ATB combined with Example 1 @8 μg/ml (KPN 6299; with Example 1 at 8 μg/ml): 0.5 µg/mL
MIC ATB combined with Example 7 @8 μgml (KPN 6299; with Example 7 at 8 μg/ml): 0.063 µg/mL
MIC ATB combined with Example 9 @4 μg/ml (KPN 6299; with Example 9 @4 μg/ml): <=0.031 μg/mL
MIC ATB combined with Example 9 @4 μg/ml (KPN 6299; with Example 9 at 4 μg/ml): <=0.031 μg/mL
MIC ATB combined with Example 11 @8 μg/ml (KPN 6299; with Example 11 at 8 μg/ml): <0.031 µg/mL
MIC ATB combined with Example 12 @8 μg/ml (KPN 6299; with Example 12 at 8 μg/ml): <0.031 µg/mL
MIC ATB combined with Example 13 @8 μg/ml (KPN 6299; with Example 13 at 8 μg/ml): 0.125 µg/mL
MIC ATB combined with Example 14 @8 μg/ml (KPN 6299; with Example 14 at 8 μg/ml): <0.031 µg/mL
MIC ATB combined with Example 15 @4 μgml (KPN 6299; with Example 15 at 4 μg/ml): <=0.031 μg/mL
MIC ATB combined with Example 16 @4 μg/ml (KPN 6299; with Example 16 at 4 μg/ml): <0.031 µg/mL
MIC ATB alone (KPN BAA-1898; antibiotic alone): >256 µg/mL
MIC ATB combined with Example 1 @8 μg/ml (KPN BAA-1898; with Example 1 @8 μg/ml): 0.125 µg/mL
MIC ATB combined with Example 1 @8 μg/ml (KPN BAA-1898; with Example 1 at 8 μg/ml): 0.125 µg/mL
MIC ATB combined with Example 7 @8 μgml (KPN BAA-1898; with Example 7 at 8 μg/ml): <0.031 µg/mL
MIC ATB combined with Example 9 @4 μg/ml (KPN BAA-1898; with Example 9 @4 μg/ml): <0.031 µg/mL
MIC ATB combined with Example 9 @4 μg/ml (KPN BAA-1898; with Example 9 at 4 μg/ml): <0.031 µg/mL
MIC ATB combined with Example 11 @8 μg/ml (KPN BAA-1898; with Example 11 at 8 μg/ml): <=0.031 μg/mL
MIC ATB combined with Example 12 @8 μg/ml (KPN BAA-1898; with Example 12 at 8 μg/ml): <0.031 µg/mL
MIC ATB combined with Example 13 @8 μg/ml (KPN BAA-1898; with Example 13 at 8 μg/ml): 0.5 µg/mL
MIC ATB combined with Example 14 @8 μg/ml (KPN BAA-1898; with Example 14 at 8 μg/ml): <0.031 µg/mL
MIC ATB combined with Example 15 @4 μgml (KPN BAA-1898; with Example 15 at 4 μg/ml): <=0.031 μg/mL
MIC ATB combined with Example 16 @4 μg/ml (KPN BAA-1898; with Example 16 at 4 μg/ml): <0.031 µg/mL
MIC ATB alone (KPN UFR42; CPO alone): >32 µg/mL
MIC ATB alone (KPN UFR42; antibiotic alone): >32 µg/mL
MIC ATB combined with Example 1 @8 μg/ml (KPN UFR42; with Example 1 @8 μg/ml): 16 µg/mL
MIC ATB combined with Example 9 @4 μg/ml (KPN UFR42; with Example 9 @4 μg/ml): <0.031 µg/mL
MIC ATB alone (ECL P99; antibiotic alone): 16 µg/mL
MIC ATB combined with Example 1 @8 μg/ml (ECL P99; with Example 1 @8 μg/ml): <0.031 µg/mL
MIC ATB combined with Example 1 @8 μg/ml (ECL P99; with Example 1 at 8 μg/ml): <0.031 µg/mL
MIC ATB combined with Example 7 @8 μgml (ECL P99; with Example 7 at 8 μg/ml): <=0.031 μg/mL
MIC ATB combined with Example 9 @4 μg/ml (ECL P99; with Example 9 @4 μg/ml): <0.031 µg/mL
MIC ATB combined with Example 9 @4 μg/ml (ECL P99; with Example 9 at 4 μg/ml): <0.031 µg/mL
MIC ATB combined with Example 11 @8 μg/ml (ECL P99; with Example 11 at 8 μg/ml): <0.031 µg/mL
MIC ATB combined with Example 12 @8 μg/ml (ECL P99; with Example 12 at 8 μg/ml): <0.031 µg/mL
MIC ATB combined with Example 13 @8 μg/ml (ECL P99; with Example 13 at 8 μg/ml): 0.063 µg/mL
MIC ATB combined with Example 14 @8 μg/ml (ECL P99; with Example 14 at 8 μg/ml): <0.031 µg/mL
MIC ATB combined with Example 15 @4 μgml (ECL P99; with Example 15 at 4 μg/ml): <0.031 µg/mL
MIC ATB combined with Example 16 @4 μg/ml (ECL P99; with Example 16 at 4 μg/ml): <0.031 µg/mL
MIC ATB alone (PAE 105250; CPO alone): 32 µg/mL
MIC ATB alone (PAE 105250; antibiotic alone): 32 µg/mL
MIC ATB combined with Example 1 @8 μg/ml (PAE 105250; with Example 1 @8 μg/ml): <0.031 µg/mL
MIC ATB combined with Example 9 @4 μg/ml (PAE 105250; with Example 9 @4 μg/ml): 32 µg/mL
MIC ATB alone (PAE UFR48; CPO alone): >32 µg/mL
MIC ATB alone (PAE UFR48; antibiotic alone): >32 µg/mL
MIC ATB combined with Example 1 @8 μg/ml (PAE UFR48; with Example 1 @8 μg/ml): <0.031 µg/mL
MIC ATB combined with Example 9 @4 μg/ml (PAE UFR48; with Example 9 @4 μg/ml): >32 µg/mL
MIC ATB alone (PAE UFR90; CPO alone): >32 µg/mL
MIC ATB alone (PAE UFR90; antibiotic alone): >32 µg/mL
MIC ATB combined with Example 1 @8 μg/ml (PAE UFR90; with Example 1 @8 μg/ml): <0.031 µg/mL
MIC ATB combined with Example 9 @4 μg/ml (PAE UFR90; with Example 9 @4 μg/ml): 8 µg/mL
MIC ATB alone (SAU 29213; CPO alone): 1 µg/mL
MIC ATB alone (SAU 29213; antibiotic alone): 1 µg/mL
MIC ATB combined with Example 1 @8 μg/ml (SAU 29213; with Example 1 @8 μg/ml): 1 µg/mL
MIC ATB combined with Example 9 @4 μg/ml (SAU 29213; with Example 9 @4 μg/ml): <0.031 µg/mL
MIC ATB alone (SPN 49619; CPO alone): <=0.031 μg/mL
MIC ATB alone (SPN 49619; antibiotic alone): <=0.031 μg/mL
MIC ATB combined with Example 1 @8 μg/ml (SPN 49619; with Example 1 @8 μg/ml): <=0.031 μg/mL
MIC ATB combined with Example 9 @4 μg/ml (SPN 49619; with Example 9 @4 μg/ml): <=0.031 μg/mL
